Patent US6338963B1, “Use of carbon monoxide dependent guanylyl cyclase modifiers to stimulate neuritogenesis” (NeoTherapeutics, Inc., priority 1994, dated 2002)

Assays:
C57BL/6 mice = assay: Ethanol-induced working memory deficit (win-shift); format: in vivo; settings: Ethanol 0.5 gm/kg i.p. ten minutes prior to testing
Method: Six month old male C57BL/6 mice were evaluated in the win-shift model in combination with treatment with ethanol, a non-specific memory suppressant, and AIT-082. Subjects were treated with saline (control) or AIT-082 (30 mg/kg. i.p.) 1 hour prior to testing. Ethanol was administered at a dose of 0.5 gm/kg i.p. ten minutes prior to testing.

[1] = test system: cGMP levels in PC12 cells; assay: cGMP levels in PC12 cells (radioimmunoassay); format: cell-based, rat; settings: NGF-primed PC12 cells
Method: Initially, PC-12 cells were primed with 40 ng/ml NGF for 3 days in low serum medium (1.5% horse serum+5% fetal calf serum). Cells were seeded onto assay plates in low serum medium containing 40 ng/ml NGF and incubated for 1 hour. The medium was changed to low arginine medium (80 μM) with no serum and NGF and papaverine ([…]) where indicated. Test compounds were added for the indicated time and the reaction was stopped by adding 5% TCA containing 10,000 dpm of ^3H-cGMP. cGMP was assayed by the radioimmunoassay method of Maurice (Mol. Pharmacol. 37: 671-681, 1990). TCA was purified by adding powdered charcoal (5 g) and filtering the mixture through Whatman #1 paper. This removed contaminants in the TCA that otherwise interfere with the radioimmunoassay (RIA) of cGMP.
It was necessary to purify the cGMP from cAMP and other contaminants before radioimmunoassay since these other materials can interfere with the assay. Briefly, the TCA solution was applied to Dowex columns (50W-8X, 200-400 mesh) and eluted. A neutral alumina column was then placed under each Dowex column. The cGMP was eluted from the Dowex columns into neutral alumina columns by adding 4 mL of 0.05 M HCl to each Dowex column. The neutral alumina columns were then sequentially rinsed with 2 ml of HCl, 4 mL water and finally with 0.2 M sodium acetate (pH 6.2). The cGMP collected for the RIA eluted in 1 ML of sodium acetate with a recovery between 50-65%. The cGMP was assayed using a Dupont RIA kit.

rat cultured astrocytes [2] = assay: Release of radioactively labeled adenine-based purines from rat cultured astrocytes; format: cell-based; settings: 300 μM
rat cultured astrocytes [3] = assay: as above; format: cell-based; settings: 300 μM, 1 hour
Method: The experiments were carried out on cultured astrocytes of rat hippocampus at the fourth day in vitro (DIV), obtained from primary cultures replated in 35 mm Petri dishes ([…] cells/dish) and preloaded with [^3H]-adenosine (5×10^−8 M for a specific activity of 20.0 Ci/mM) for 30 minutes at 37° C.
The effect of AIT-082 on the proportional release of radioactively labeled adenine nucleosides and nucleotides from rat cultured astrocytes is shown in FIGS. 29A and 29B. Culture medium collected during the first hour of the release was analyzed by high performance liquid chromatography (HPLC) and the radioactivity associated with the different adenine compounds was measured and expressed as a percentage of the total radioactivity released. The results are shown for ATP, ADP, and AMP in FIG. 29A, and for adenosine, inosine, and hypoxanthine in FIG. 29B.

PC12 cells = assay: Neuritogenesis in PC12 cells; format: cell-based, rat
Method: Much of the work performed in the characterization of the compounds of the present invention involved the use of PC12 cells. These cells are derived from a rat pheochromocytoma and when grown in the presence of NGF, extend neurites, cease cell division and assume many characteristics of sympathetic neurons. When cultured in the absence of nerve growth factor (NGF), few PC12 cells have neurites greater than one cell diameter. Addition of saturating concentrations of NGF for 48 hours stimulates neurite outgrowth in about 20-35% of the cells. Because they constitute a homogeneous population of neuronal-like cells, without contaminating astroglia type cells, it is possible to study the direct effects of the purine based compounds on neurite outgrowth in these cells.
Cells cultured in RPMI 1640 with 1.5% horse serum and 1.5% fetal bovine serum were re-plated onto poly-ornithine coated 24-well culture plates (2.5×10^4 cells per well). AIT-082 and NGF were added to the various cultures immediately upon plating. After 48 hours, medium was removed and the cells irnmediately fixed in 10% formalin and PBS for 10 minutes. Cells and neurites were counted within 2 days of fixation.
A neurite was defined as a process extending from the cell at least 1 cell body diameter in length and displaying a growth cone at its tip. For each treatment, 2 representative microscope fields were counted from each of 6 sister cultures receiving identical treatments. The total number of cells counted per well (approximately 100 cells) and the total number of cells containing neurites in each well were used to determine fraction of neurite-bearing cells. The mean values (±SEM) were then determined for each of the treatments. To facilitate comparison neurite outgrowth was expressed relative to the proportion of cells bearing neurites in the presence of NGF alone (NGF=100%). The effects of compounds with and without NGF were compared by analysis of variance (ANOVA) followed by Tukey's test for significance.
The results are shown in FIG. 3 where the curve represents different levels of AIT-082 plus saturating concentrations (40 ng/ml) NGF. The center horizontal line represents control values for cells cultured in the presence of 40 ng/ml NGF alone. Upper and lower horizontal lines are indicative of confidence limits of NGF alone as determined using standard statistical methods.

neocortical astrocytes = assay: NGF-like immunoreactivity in astrocyte culture medium (ELISA); format: cell-based, mouse; settings: astrocytes incubated with different concentrations
Method: Astrocytes appear to proliferate in response to extracellular guanosine or guanosine triphosphate (GTP). GTP or guanosine may also stimulate the release of trophic factors from cultures of neocortical astrocytes from neonatal mouse brains. Astrocytes were incubated with different concentrations of guanosine or GTP respectively. Neurotrophin imunoreactivity in the culture medium from treated cells was then measured by ELISA.
Briefly, 96 well Falcon plates (Fisher) were coated with […] of sheep mono-specific anti-NGF IgG (affinity column purified) contained in 0.1M sodium carbonate buffer pH 9.6. After an overnight incubation at 4° C. blocking solution (PBS with 10% goat serum) was added to remove excess antibody. After a four hour incubation at room temperature the plates were washed three times with PBS containing 0.05% Tween 20. The conditioned media and standard 2.5S HPLC purified NGF were added and incubated overnight. The next day plates were washed 3 times with PBS-0.05% Tween 20. The secondary antibody, rabbit mono-specific anti-NGF IgG conjugated with β-galactosidase (Pierce-SPDP method) (1:500 dilution) was added. The plates were incubated overnight at 4° C. The next day the plates were washed 3 times with PBS-0.05% Tween 20. […]
The ELISA assay detected neurotrophins NGF and NT-3 with ahnost equal affinity and BDNF with 100 times less affinity. […]

mice = assay: T-maze memory test with atropine co-administration; format: in vivo; settings: AIT-082 30 mg/kg i.p. 2 hr prior; atropine 0.5 mg/kg i.p. 1/2 hour prior to testing, day 3
Method: To elucidate the mechanisms by which AIT-082 improves memory, attempts were made to block its actions by co-administration of the short-acting cholinergic antagonist atropine to mice and subjecting them to simple learning tests. Atropine reportedly has the ability to block the effects of physostigmine and THA. Mice were injected with AIT-082 (30 mg/kg) 2 hr prior to testing on days 1 through 4. Atropine (0.5 mg/kg) was injected ½ hour prior to testing or 1.5 hours after AIT-082 on day 3 only. All injections were i.p. After a reference run to determine where the reward was placed in a T-maze, the mice were retested to determine if they could remember the location of the reward. The percentage of correct responses is graphically represented in FIG. 2.

In the case of CCO [Ethanol, ethanol, reference compound], the “Correct trials (mean number of correct responses per 10 trials ± S.E.)” value (C57BL/6 mice) is reported as 6.5 ± 26.

Nc1nc2c(ncn2[C@@H]2O[C@H](COP(=O)(O)OP(=O)(O)OP(=O)(O)O)[C@@H](O)[C@H]2O)c(=O)[nH]1 [GTP, guanosine triphosphate, reference compound] was tested, and the “cGMP in PC12 cells” value [1] was “did not increase levels of cGMP”, the “ADP, radioactivity released in the culture medium” value (rat cultured astrocytes [2]; 1 hour) was 2.10 ± 0.31 cpm × 10^3 and the “AMP, proportional release” value (rat cultured astrocytes [2]; 1 hour) was “(23.5 ± 2.4) percentage of the total [^3H]-purines released”. The “AMP, radioactivity released in the culture medium” value (rat cultured astrocytes [2]; 1 hour) was 2.76 ± 0.28 cpm × 10^3, the “ATP, proportional release” value (rat cultured astrocytes [2]; 1 hour) was “(10.9 ± 1.1) percentage of the total [^3H]-purines released” and the “ATP, radioactivity released in the culture medium” value (rat cultured astrocytes [2]; 1 hour) was 1.28 ± 0.13 cpm × 10^3. The “Adenosine, radioactivity released in the culture medium” value (rat cultured astrocytes [2]; 1 hour) was 0.47 ± 0.06 cpm × 10^3, the “Hypoxanthine, proportional release” value (rat cultured astrocytes [2]; 1 hour) was “(18.4 ± 2.6) percentage of the total [^3H]-purines released” and the “Hypoxanthine, radioactivity released in the culture medium” value (rat cultured astrocytes [2]; 1 hour) was 2.20 ± 0.31 cpm × 10^3. For the same compound, the “Inosine, radioactivity released in the culture medium” value (rat cultured astrocytes [2]; 1 hour) was 1.65 ± 0.2 cpm × 10^3, the “ADP, proportional release” value (rat cultured astrocytes [2]; 3 hours) was “(8.6 ± 0.7) percentage of the total [^3H]-purines released” and the “ADP, radioactivity released in the culture medium” value (rat cultured astrocytes [2]; 3 hours) was 1.05 ± 0.09 cpm × 10^3. For the same compound, the “AMP, proportional release” value (rat cultured astrocytes [2]; 3 hours) was “(40.0 ± 3.9) percentage of the total [^3H]-purines released”, the “AMP, radioactivity released in the culture medium” value (rat cultured astrocytes [2]; 3 hours) was 4.32 ± 0.48 cpm × 10^3 and the “ATP, proportional release” value (rat cultured astrocytes [2]; 3 hours) was “(4.4 ± 0.4) percentage of the total [^3H]-purines released”. The “ATP, radioactivity released in the culture medium” value (rat cultured astrocytes [2]; 3 hours) was 0.54 ± 0.05 cpm × 10^3, the “Adenosine, proportional release” value (rat cultured astrocytes [2]; 3 hours) was “(2.5 ± 0.2) percentage of the total [^3H]-purines released” and the “Adenosine, radioactivity released in the culture medium” value (rat cultured astrocytes [2]; 3 hours) was 0.31 ± 0.02 cpm × 10^3. For the same compound, the “Hypoxanthine, proportional release” value (rat cultured astrocytes [2]; 3 hours) was “(25.0 ± 3.7) percentage of the total [^3H]-purines released”, the “Hypoxanthine, radioactivity released in the culture medium” value (rat cultured astrocytes [2]; 3 hours) was 3.11 ± 0.45 cpm × 10^3 and the “Inosine, proportional release” value (rat cultured astrocytes [2]; 3 hours) was “(9.7 ± 1.2) percentage of the total [^3H]-purines released”. The “Inosine, radioactivity released in the culture medium” value (rat cultured astrocytes [2]; 3 hours) was 1.19 ± 0.19 cpm × 10^3, the “ADP, proportional release” value (rat cultured astrocytes [3]) was “(17.8 ± 2.6) percentage of the total [^3H]-purines released” and the “Adenosine, proportional release” value (rat cultured astrocytes [3]) was “(4.0 ± 0.5) percentage of the total [^3H]-purines released”. For the same compound, the “Inosine, proportional release” value (rat cultured astrocytes [3]) was “(14.0 ± 1.7) percentage of the total [^3H]-purines released”, the “neurite outgrowth in the absence of NGF” value (PC12 cells; compound alone) was “elicited neurite outgrowth on its own” and the “enhancement of NGF-induced neurite outgrowth” value (PC12 cells; in the presence of NGF, 48 hours) was “did enhance neuritogenesis in the presence of NGF”. For the same compound, the “NGF-like immunoreactivity in the culture medium” value (neocortical astrocytes) was “increased the amount of NGF-like immunoreactivity”.

For CN1[C@@H]2CC[C@H]1C[C@@H](OC(=O)C(CO)c1ccccc1)C2 (stereo partly drawn) [atropine], the “effect of atropine on memory enhancement by AIT-082” value (mice) was “blocked the memory enhancing activity of AIT-082”.
